From publication PMC1839085, “Crystal structures of an Extracytoplasmic Solute Receptor from a TRAP transporter in its open and closed forms reveal a helix-swapped dimer requiring a cation for α-keto acid binding” (BMC Structural Biology, 2007)

Target: T1, TakP (Cereibacter sphaeroides, UniProt Q3J1R2)
T1 construct: His6 (C); made in house; host or cells: E. coli BL21
Assay: Tryptophan fluorescence quenching titration of ligand binding to TakP
Set-up: species or system Rhodobacter sphaeroides
Conditions: for Binding to purified proteins from the SmoM family (qualitative): purified proteins from the SmoM (TakP) family, stated as [15] and this study, method not specified
Excerpt: We overexpressed and purified TakP from Rhodobacter sphaeroides and confirmed its ability to bind a range of α-keto acids. A general feature of ESRs is that substrate binding is accompanied by a diminished fluorescence from some tryptophan residue(s) as a result of the conformational changes induced by the binding. […] This was accompanied by a shift of the emission peak: the difference spectrum between the unliganded and liganded (quenched) protein has its maximum around 345 nm, whereas the bulk fluorescence from the unliganded form peaks at 335 nm. […] There are 10 Trp residues in the TakP sequence. From the structural information describe below, it turned out that one of these Trp residues (Trp 215) is directly interacting with the ligand when present, so that its fluorescence may be strongly quenched as a result. Two others undergo a significant displacement during the open/closed transition, which may also affect their fluorescence properties. Clearly, the observed amplitude of the fluorescence quenching caused by ligand binding (~30%) implies that these sensitive residues have for some reason a larger relative contribution to the fluorescence emission than the other tryptophans of the protein.
Because of the high binding affinity of these, we had to use a sufficiently low protein concentration to obtain an accurate determination of the dissociation constant, Kd. If the protein concentration is below the Kd, allowing the presence of a significant fraction of free substrate during the titration, the Kd can be determined from a fit of the equation:
F/F0=1−ΔF×[PL]=1−ΔF×0.5(Kd+[P0]+[L0]−(Kd+[P0]+[L0])^2−4[P0][L0]) MathType@MTEF@5@5@+=feaafiart1ev1aaatCvAUfKttLearuWrP9MDH5MBPbIqV92AaeXatLxBI9gBaebbnrfifHhDYfgasaacH8akY=wiFfYdH8Gipec8Eeeu0xXdbba9frFj0=OqFfea0dXdd9vqai=hGuQ8kuc9pgc9s8qqaq=dirpe0xb9q8qiLsFr0=vr0=vr0dc8meaabaqaciaacaGaaeqabaqabeGadaaakeaacqWGgbGrcqGGVaWlcqWGgbGrdaWgaaWcbaGaeGimaadabeaakiabg2da9iabigdaXiabgkHiTiabfs5aejabdAeagjabgEna0kabcUfaBjabdcfaqjabdYeamjabc2faDjabg2da9iabigdaXiabgkHiTiabfs5aejabdAeagjabgEna0kabicdaWiabc6caUiabiwda1maabmaabaGaem4saS0aaSbaaSqaaiabdsgaKbqabaGccqGHRaWkcqGGBbWwcqWGqbaudaWgaaWcbaGaeGimaadabeaakiabc2faDjabgUcaRiabcUfaBjabdYeamnaaBaaaleaacqaIWaamaeqaaOGaeiyxa0LaeyOeI0YaaOaaaeaacqGGOaakcqWGlbWsdaWgaaWcbaGaemizaqgabeaakiabgUcaRiabcUfaBjabdcfaqnaaBaaaleaacqaIWaamaeqaaOGaeiyxa0Laey4kaSIaei4waSLaemitaW0aaSbaaSqaaiabicdaWaqabaGccqGGDbqxcqGGPaqkdaahaaWcbeqaaiabikdaYaaakiabgkHiTiabisda0iabcUfaBjabdcfaqnaaBaaaleaacqaIWaamaeqaaOGaeiyxa0Laei4waSLaemitaW0aaSbaaSqaaiabicdaWaqabaGccqGGDbqxaSqabaaakiaawIcacaGLPaaaaaa@7441@
Here, F is the fluorescence amplitude and F0 its value in the absence of ligand. Δ F is the normalized amplitude of the saturated quenching, [PL] is the concentration of liganded protein, [P0] and [L0] are the concentrations of the total protein and ligand, respectively. The protein concentration was determined from its 280 nm absorbance and pertains here to the monomeric unit (see below).
Fluorescence spectroscopy was performed using a Varian Cary Eclipse spectrofluorimeter with an excitation wavelength of 290 nm. The emission spectra were recorded between 300 and 500 nm. Ligand binding was determined from the partial quenching of this fluorescence emission. To gain a more accurate determination of the dissociation constant, the protein concentration was lowered down to 50 nM (in 50 mM Tris/HCl, pH 7) and the amplitude of the fluorescence emission was computed from an integration of the emission over the 315 nm to 360 nm range.

T1 sequence (Q3J1R2 27-365): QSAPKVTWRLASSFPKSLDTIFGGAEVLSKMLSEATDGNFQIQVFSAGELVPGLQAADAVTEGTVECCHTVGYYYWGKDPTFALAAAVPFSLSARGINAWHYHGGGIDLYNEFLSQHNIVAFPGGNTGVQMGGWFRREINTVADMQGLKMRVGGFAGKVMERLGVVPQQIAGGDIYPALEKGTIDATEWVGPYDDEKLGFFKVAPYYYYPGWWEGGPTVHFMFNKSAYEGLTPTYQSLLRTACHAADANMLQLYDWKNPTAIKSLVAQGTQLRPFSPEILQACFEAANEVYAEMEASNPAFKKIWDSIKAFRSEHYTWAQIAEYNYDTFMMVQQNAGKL

**Q.** For `CC(C)CC(=O)C(=O)O` [4-Methyl-2-Oxovalerate], which Kd is on record?
**A.** The Kd was 720 ± 55 nM.

**Q.** `CCC(=O)C(=O)O` [Oxobutyrate, oxobutyrate] was tested. Which Kd did it give?
**A.** Its Kd is 43 ± 4 nM.

**Q.** With `CCCC(=O)C(=O)O` [Oxovalerate, oxovalerate] as the compound, how does the Kd read?
**A.** The Kd was 18 ± 3 nM.

**Q.** Which Kd does the source give for `CC(=O)C(=O)O` [Pyruvate, pyruvate] here?
**A.** Its Kd is 270 ± 20 nM.

**Q.** How did the “Binding to purified proteins from the SmoM family (qualitative)” value turn out when `OC[C@@H](O)[C@@H](O)[C@H](O)[C@H](O)CO` [mannitol] was run?
**A.** The value was “neither bind”.

**Q.** With `OC[C@@H](O)[C@@H](O)[C@H](O)[C@@H](O)CO` [sorbitol] as the compound, how does the “Binding to purified proteins from the SmoM family (qualitative)” value read?
**A.** The value was “neither bind”.

**Q.** Which “Binding to TakP (qualitative)” value (fluorescence quenching titration) does the source give for `O=C(O)CCC(=O)C(=O)O` [α-ketoglutarate] here?
**A.** Its value is “No binding”.
